Data taken from paper PMC8955139, “Identifying HSV-1 Inhibitors from Natural Compounds via Virtual Screening Targeting Surface Glycoprotein D” (Pharmaceuticals, 2022).
Like-named read-outs stand apart in the source and are kept apart here.

Legend:
HSV-1 strain F [1] = assay: Time of addition cytopathic effect (CPE) inhibition assay; assay type: cell-based; settings: for Antiherpetic activity in the in vitro assays: CPE inhibition, all stages, #28 at 10 µg/mL, #29 at 1 µg/mL
HSV-1 strain F [2] = assay: Plaque reduction dose-response assay in VERO cells; assay type: cell-based; settings: for EC50: Human alphaherpesvirus 1, plaque reduction
HSV-1 [3] = assay: Pre-treatment of cells with AC#7 before HSV-1 infection (Figure S2); assay type: cell-based
[4] = Cytotoxicity of ACs, WST-1, 24 h; settings: African green monkey, VERO cells
VERO cells [5] = assay: Cytotoxicity of ACs, WST-1, 24 h; settings: for Toxicity at the highest concentration tested compared with DMSO control: 100 µg/mL; for Highest Concentration with Cell Viability above 75%: 24 h, WST-1, tested 0.1-100 µg/mL; for Toxicity to the cells: 10 µg/mL
VERO cells [6] = assay: Toxicity of AC#7 on VERO cells at high concentration (800 µM, 2 h exposure, 46 h); settings: viability 46 h later, WST-1
in vitro = settings: African green monkey
HSV-1 [7] = settings: cited from earlier work
ACV-resistant HSV-1 = system: ACV-resistant HSV-1; set-up: method as in PMID 9660995; settings: in vivo; cited from earlier work
SARS-CoV 3CLpro = settings: cited from earlier work

## O=C(/C=C1\NCCc2cc3c(cc21)OCO3)c1cc2ccccc2o1 [AC#7, 1-(1-benzofuran-2-yl)-2-[(5Z)-2H,6H,7H,8H-[1,3]dioxolo [4,5-g]isoquinoline-5-ylidene]ethenone]
HSV-1 strain F [1]; 10 µg/mL, virus preincubated with AC 1 h, MOI 5, VERO, vs DMSO control
  Antiviral activity at the viral inactivation stage: significantly higher activity than the DMSO control
HSV-1 strain F [2]; 25 µM, virus preincubated 1 h, VERO
  Reduction of virus-induced plaques compared to DMSO control: significantly reduced the number of virus-induced plaques
HSV-1 strain F [2]; 6.25-400 µM, pre-incubated with the virus, vs DMSO control
  Dose dependence of antiviral response: dose-dependent antiviral response
HSV-1 strain F [2]; virus preincubated with AC 1 h, VERO
  EC50: 61 µg/mL
HSV-1 strain F [2]; virus preincubated with AC 1 h, VERO, asymmetric nonlinear regression R2 = 0.84
  EC50: 183 µM
HSV-1 [3]; 10 µg/mL, 1 h before infection, MOI 5, VERO
  Antiviral activity when cells were preincubated with AC prior to HSV-1 infection: No antiviral activity
HSV-1 [3]; 10 µg/mL, cells pre-treated 1 h, MOI=5, 48 h
  Cell survival rate: 7.7%
HSV-1 [3]; Human alphaherpesvirus 1, cells pre-treated 1 h, MOI=5, 48 h
  inhibition at 10 µg/mL: 0%
[4]
  viability at 24 h: 124%
VERO cells [5]
  Toxicity at the highest concentration tested compared with DMSO control: negligible toxicity
  Highest Concentration with Cell Viability above 75%: >100 µg/mL
VERO cells [6]
  Toxicity to VERO cells: Negligible toxicity

## CN1CCN(C(=O)CCn2c3c(c4ccccc42)CCn2c-3nc3ccccc3c2=O)CC1 [AC#10, 13-[3-(4-methylpiperazin-1-yl)-3-oxopropyl]-8,13-dihydroindolo[2′,3′:3,4] pyrido [2,1-b]quinazolin-5(7H)-one]
[4]
  viability at 24 h: 73.2%
VERO cells [5]
  Toxicity to the cells: exhibited toxicity
  Highest Concentration with Cell Viability above 75%: 1 µg/mL

## C[C@H]1CCC[C@]2(C)C[C@H]3OC(=O)[C@H](CN4CCN(c5ccccc5)CC4)[C@H]3[C@@H]3O[C@@]132 [AC#16, (1Ar,2S,5Ar,6Ar,9S,9Ar,9Bs)-2,5a-dimethyl-9-((4-phenylpiperazin-1-yl)methyl)octahydro-2H-oxireno[2′,3′:4,4a]naphtho[2,3-b]furan-8(9Bh)-one]
[4]
  viability at 24 h: 102%
VERO cells [5]
  Toxicity to the cells: exhibited toxicity
  Highest Concentration with Cell Viability above 75%: 1 µg/mL

## Cc1ccc(Cl)cc1N1CCN(C[C@H]2C(=O)O[C@@H]3C[C@@]4(C)CCC[C@H](C)[C@@]45O[C@H]5[C@@H]32)CC1 [AC#17, (1Ar,2S,5Ar,6Ar,9S,9Ar,9Bs)-9-( (4-(5-chloro-2-methylphenyl)piperazin-1-yl)methyl)-2,5a-dimethyloctahydro-2H-oxireno[2′,3′:4,4a]naphtho[2,3-b]furan-8(9Bh)-one]
[4]
  viability at 24 h: 96.8%
VERO cells [5]
  Toxicity to the cells: exhibited toxicity
  Highest Concentration with Cell Viability above 75%: 1 µg/mL

## O=c1c(-c2c3cn[nH]c3nc3c2oc2cc(O)ccc23)cc2cccc3c2n1CC3 [AC#27]
HSV-1 strain F [1]; 10 µg/mL, AC added 1 h after infection, MOI 5, VERO
  Antiviral activity at the post-entry stage: possess antiherpetic activity
[4]
  viability at 24 h: 106%
VERO cells [5]
  Toxicity at the highest concentration tested compared with DMSO control: negligible toxicity
  Highest Concentration with Cell Viability above 75%: >100 µg/mL

## O=C(CC1NC(=O)c2ccccc21)Nc1ccc2c(c1)C(=O)N1CCC[C@H]1C(=O)N2 (stereo partly drawn) [AC#28, N-((S)-5,11-dioxo-2,3,5,10,11,11a-hexahydro-1H-benzo[e]pyrrolo[1,2-a][1,4]diazepin-7-yl)-2-(3-oxoisoindolin-1-yl)acetamide]
HSV-1 strain F [1]
  Antiherpetic activity in the in vitro assays: failed to show antiherpetic activity
[4]
  viability at 24 h: 105%
VERO cells [5]
  Toxicity at the highest concentration tested compared with DMSO control: negligible toxicity
  Highest Concentration with Cell Viability above 75%: >100 µg/mL

## O=C1NC(=O)c2c1c1c3ccccc3[nH]c1c1[nH]c3ccccc3c21 [AC#29, Arcyriaflavin A]
HSV-1 strain F [1]
  Antiherpetic activity in the in vitro assays: failed to show antiherpetic activity
In vitro
  viability at 24 h: 86.2%

## Nc1nc2c(ncn2COCCO)c(=O)[nH]1 [ACV, 9-((2-Hydroxyethoxy)methyl) guanine, reference compound]
HSV-1 strain F [2]; added post-HSV infection, VERO, R2 > 0.99
  EC50: 0.77 µM
HSV-1 [7]; in vitro
  EC50: ~1 µM

## CC[C@@H](NC(=O)[C@@H](CC(=O)[C@@H](CC(=O)[C@@H](NC(=O)[C@H](C(C)C)N(C)C(=O)[C@H](C)CC1CCCCC1)C(C)(C)C)CC(=O)C(C)(C)C)C1(C(=O)O)CCCC1)C(C)(C)C [BILD 1633 SE]
HSV-1 [7]; in vitro
  Antiviral activity in vitro relative to ACV: higher antiviral activity than ACV
ACV-resistant HSV-1
  Therapeutic effect against ACV-resistant HSV-1 infections: potent therapeutic effect

## COc1cc(/C=C/C(=O)CC(=O)/C=C/c2ccc(O)c(OC)c2)ccc1O [curcumin]
HSV-1 [7]; antiviral activity
  EC50: 89.6 µM

## Cc1cc(O)c2c(c1)C(=O)c1cc(O)cc(O)c1C2=O [emodin]
HSV-1 [7]; antiviral activity
  EC50: 21.5 to 195 µM

## O=C(O[C@@H]1Cc2c(O)cc(O)cc2O[C@@H]1c1cc(O)c(O)c(O)c1)c1cc(O)c(O)c(O)c1 [epigallocatechin gallate]
HSV-1 [7]; antiviral activity
  EC50: 12.5 to 50 µM

## CCOC(=O)/C=C/[C@H](C[C@@H]1CCNC1=O)NC(=O)[C@@H](CC(=O)[C@@H](NC(=O)c1cc(C)on1)C(C)C)Cc1ccc(F)cc1 [rupintrivir]
SARS-CoV 3CLpro
  Inhibition of SARS-CoV 3CLpro: weak to undetectable inhibition
